Laboratory results: ChEMBL document CHEMBL1147588, “Synthesis and in vitro cytotoxicity of 5-substituted 2-cyanoimino-4-imidazodinone and 2-cyanoimino-4-pyrimidinone derivatives” (Bioorg Med Chem Lett, 2004)

Legend:
HONE1 cell line = test: Cytotoxic activity against HONE1 nasopharyngeal carcinoma cell line; assay type: functional, cell-based; details: Homo sapiens
MCF7 [1] = test: Cytotoxic activity against MCF breast cancer cell line; assay type: functional, cell-based; details: Homo sapiens
WI-38 = test: Cytotoxic activity against WI38 normal fibroblast cell line; na=Not active; assay type: functional, cell-based, Homo sapiens
HA22T cell line [2] = test: Cytotoxic activity against HA22T liver cancer cell line; na=Not active; assay type: functional, cell-based, Homo sapiens
DLD-1 = test: Cytotoxic activity against DLD1 colon cancer cell line; assay type: functional, cell-based; details: Homo sapiens
HepG2 = test: Cytotoxic activity against HepG2 liver cancer cell line; assay type: functional, cell-based; details: Homo sapiens
NUGC = test: Cytotoxic activity against NUGC gastric cancer cell line; assay type: functional, cell-based; details: Homo sapiens, Stomach
HA22T cell line [3] = test: Cytotoxic activity against HA22T liver cancer cell line; assay type: functional, cell-based; details: Homo sapiens
MCF7 [4] = test: Cytotoxic activity against MCF breast cancer cell line; na=Not active; assay type: functional, cell-based, Homo sapiens

Structure (SMILES)	IC50 (HONE1 cell line)	IC50 (MCF7 [1])	IC50 (WI-38)	IC50 (HA22T cell line [2])	IC50 (DLD-1)	IC50 (HepG2)	IC50 (NUGC)	IC50 (HA22T cell line [3])	IC50 (MCF7 [4])
CC1C(=O)N(CCCCCOc2ccc(Cl)cc2)/C(=N\C#N)N1c1ccncc1 (configuration not stated)	3.68 µM	9260 nM	Not Active	Not Active	4.11 µM	4090 nM	1780 nM	–	–
N#CN=C(NCCCCCCOc1ccc(Cl)cc1)Nc1ccncc1 [CHS-828]	0.015 µM	18 nM	Not Active	–	2.31 µM	1240 nM	25 nM	2.07 µM	–
CCC1C(=O)N(CCCCCCCOc2ccc(Cl)cc2)/C(=N\C#N)N1c1ccncc1 (configuration not stated)	3.23 µM	4540 nM	Not Active	–	3.53 µM	3450 nM	1280 nM	6.05 µM	–
N#C/N=C1\N(CCCCCCCOc2ccc(Cl)cc2)C(=O)CCN1c1ccncc1	3.44 µM	6840 nM	Not Active	–	3.2 µM	4000 nM	1100 nM	7.56 µM	–
N#C/N=C1\N(CCCCCCCOc2ccc(Cl)cc2)C(=O)C(c2ccccc2)N1c1ccncc1 (configuration not stated)	0.398 µM	1170 nM	Not Active	–	0.29 µM	380 nM	3350 nM	0.831 µM	–
CC1C(=O)N(CCCCCCOc2ccc(Cl)cc2)/C(=N\C#N)N1c1ccncc1 (configuration not stated)	0.303 µM	270 nM	Not Active	–	0.333 µM	282 nM	214 nM	0.382 µM	–
N#C/N=C1\N(CCCCCCCOc2ccc(Cl)cc2)C(=O)CN1c1ccncc1	3.24 µM	815 nM	Not Active	–	3.34 µM	2740 nM	926 nM	3.5 µM	–
N#C/N=C1\N(CCCCCCOc2ccc(Cl)cc2)C(=O)CN1c1ccncc1	2.96 µM	443 nM	Not Active	–	3.44 µM	392 nM	386 nM	3.86 µM	–
N#C/N=C1\N(CCCCCOc2ccc(Cl)cc2)C(=O)CCN1c1ccncc1	3.45 µM	5460 nM	Not Active	Not Active	6.74 µM	2830 nM	3120 nM	–	–
N#C/N=C1\N(CCCCCCOc2ccc(Cl)cc2)C(=O)C(c2ccccc2)N1c1ccncc1 (configuration not stated)	0.337 µM	1130 nM	Not Active	–	0.037 µM	44 nM	3340 nM	0.526 µM	–
CCC1C(=O)N(CCCCCCOc2ccc(Cl)cc2)/C(=N\C#N)N1c1ccncc1 (configuration not stated)	3.87 µM	6910 nM	Not Active	–	3.56 µM	4350 nM	406 nM	5.13 µM	–
CC1C(=O)N(CCCCCCCOc2ccc(Cl)cc2)/C(=N\C#N)N1c1ccncc1 (configuration not stated)	0.371 µM	460 nM	Not Active	–	0.37 µM	359 nM	1240 nM	0.688 µM	–
N#C/N=C1\N(CCCCCOc2ccc(Cl)cc2)C(=O)CN1c1ccncc1	3.4 µM	5360 nM	Not Active	–	3.8 µM	4200 nM	2760 nM	8.97 µM	–
CCC1C(=O)N(CCCCCOc2ccc(Cl)cc2)/C(=N\C#N)N1c1ccncc1 (configuration not stated)	4.83 µM	–	Not Active	Not Active	4.08 µM	4320 nM	3040 nM	–	Not Active
N#C/N=C1\N(CCCCCCOc2ccc(Cl)cc2)C(=O)CCN1c1ccncc1	0.577 µM	454 nM	Not Active	–	0.565 µM	344 nM	288 nM	3.04 µM	–
N#C/N=C1\N(CCCCCOc2ccc(Cl)cc2)C(=O)C(c2ccccc2)N1c1ccncc1 (configuration not stated)	0.373 µM	1000 nM	Not Active	–	0.337 µM	415 nM	3450 nM	3.59 µM	–
